One test concerns the target JAK1 (Homo sapiens (Human), UniProt P23458). Nature of the test: Jak biochemical HTRF assay, JAK1. The settings on record: HTRF biochemical assay, recombinant GST-tagged catalytic domain; read-out: JAK1 IC50.
Sequence of JAK1 (P23458 875-1153): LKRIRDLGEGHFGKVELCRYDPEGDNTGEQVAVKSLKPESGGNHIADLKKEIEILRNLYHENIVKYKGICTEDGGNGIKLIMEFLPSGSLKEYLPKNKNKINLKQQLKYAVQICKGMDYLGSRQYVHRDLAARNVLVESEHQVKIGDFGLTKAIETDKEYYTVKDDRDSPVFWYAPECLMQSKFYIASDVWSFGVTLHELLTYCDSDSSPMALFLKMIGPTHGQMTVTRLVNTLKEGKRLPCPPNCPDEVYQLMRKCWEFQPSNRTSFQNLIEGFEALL
With `N#C[C@H]1CCCC[C@@H]1n1nc(Nc2ccc3c(c2)C(O)(CO)CCS3(=O)=O)c2c(=O)[nH]ccc21` (stereo partly drawn) [Example 3-48, (1S,2S)-2-(3-{[4-hydroxy-4-(hydroxymethyl)-1,1-dioxido-3,4-dihydro-2H-thiochromen-6-yl]amino}-4-oxo-4,5-dihydro-1H-pyrazolo[4,3-c]pyridin-1-yl)cyclohexanecarbonitrile], the IC50 was 18 nM.

As to `CC(c1ccc(Nc2nn([C@H]3CCCC[C@@H]3C#N)c3cc[nH]c(=O)c23)cc1)n1nccn1` (single isomer, unassigned) [Example 15-21, (1S,2S)-2-[4-oxo-3-({4-[(1S or 1R)-1-(2H-1,2,3-triazol-2-yl)ethyl]phenyl}amino)-4,5-dihydro-1H-pyrazolo[4,3-c]pyridin-1-yl]cyclohexanecarbonitrile], the IC50 was 0.39 nM.

On to `N#C[C@H]1CCCC[C@@H]1n1nc(Nc2cccc(CNC(=O)c3cnco3)c2)c2c(=O)[nH]ccc21` [Example 3-12, N-[3-({1-[(1S,2S)-2-cyanocyclohexyl]-4-oxo-4,5-dihydro-1H-pyrazolo[4,3-c]pyridin-3-yl}amino)benzyl]-1,3-oxazole-5-carboxamide], for which the half-maximal inhibitory concentration (IC50) came to 0.31 nM.

A further test deals with JAK2 (Homo sapiens (Human), UniProt O60674). In words: Jak biochemical HTRF assay, JAK2. The settings on record: HTRF biochemical assay, recombinant GST-tagged catalytic domain; read-out: JAK2 IC50. As for the experimental part: Jak Biochemical HTRF Assay Protocol
Sequence of JAK2 (O60674 849-1124): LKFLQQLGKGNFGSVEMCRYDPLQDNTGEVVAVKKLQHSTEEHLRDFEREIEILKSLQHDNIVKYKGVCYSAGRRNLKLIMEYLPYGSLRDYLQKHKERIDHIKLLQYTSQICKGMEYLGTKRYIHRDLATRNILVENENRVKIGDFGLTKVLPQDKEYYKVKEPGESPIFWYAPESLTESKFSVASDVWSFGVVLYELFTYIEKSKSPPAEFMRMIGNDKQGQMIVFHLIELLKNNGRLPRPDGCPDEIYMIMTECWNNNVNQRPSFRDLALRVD
The ability of compounds to inhibit the activity of JAK1, JAK2, JAK3, and Tyk2 was measured using a recombinant purified GST-tagged catalytic domain for each enzyme (Invitrogen JAK1 #M4290, JAK2 #M4290, JAK3 #M4290, Tyk2 #M4290) in an HTRF format biochemical assay. […] The basic assay protocol is as follows: First, 250 nL of diluted compounds in DMSO were dispensed into the wells of a dry 384-well Black plate (Greiner #781076) using a Labcyte Echo 555 acoustic dispenser. Subsequent reagent additions employed an Agilent Bravo. […] After equilibration, 2 μL of 10×ATP in 1× assay buffer was added to initiate the kinase reaction and the plates were shaken and then incubated at room temperature for 120 minutes. […] Plates were shaken and centrifuged and then incubated 60 minutes at room temperature and then read on a Perkin Elmer Envision (λex=337 nm, λem=665 and 615 nm, TRF delay time=20 μs). HTRF signal=10,000*665 nm reading/615 nm reading. After normalization to untreated controls, the percent inhibition of the HTRF signal at each compound concentration was calculated. The plot of percent inhibition versus the log of compound concentration was fit with a 4-parameter dose response equation to calculate IC50 values.
Final Reaction Conditions were:
Examples of the instant invention were evaluated in JAK1 and JAK2 in vitro binding assays.
Regarding `CC(O)(CCO)c1cc(Nc2nn([C@H]3CCCC[C@@H]3C#N)c3cc[nH]c(=O)c23)ccc1S(C)(=O)=O` (stereo partly drawn) [Example 3-86, (1S,2S)-2-(3-{[3-(1,3-dihydroxy-1-methylpropyl)-4-(methylsulfonyl)phenyl]amino}-4-oxo-4,5-dihydro-1H-pyrazolo[4,3-c]pyridin-1-yl)cyclohexanecarbonitrile], the IC50 worked out at 7.6 nM.

Turning to `N#C[C@H]1C[C@@H](N2CCC2)CC[C@@H]1n1nc(Nc2ccc(Cl)cc2)c2c(=O)[nH]ccc21` [Example 5-18, (1S,2S,5S)-5-(azetidin-1-yl)-2-(3-((4-chlorophenyl)amino)-4-oxo-4,5-dihydro-1H-pyrazolo[4,3-c]pyridin-1-yl)cyclohexanecarbonitrile], the IC50 came to 13 nM.

Turning to `N#C[C@H]1CCCC[C@@H]1n1nc(Nc2ccc3c(c2)C(O)C2(CCCCC2)S3(=O)=O)c2c(=O)[nH]ccc21` (single isomer, unassigned) [Example 3-174, (1S,2S)-2-(3-{[(3S or 3R)-3-hydroxy-1,1-dioxido-3H-spiro[1-benzothiophene-2,1′-cyclohexan]-5-yl]amino}-4-oxo-4,5-dihydro-1H-pyrazolo[4,3-c]pyridin-1-yl)cyclohexanecarbonitrile], the IC50 is 0.49 nM.

Regarding `N#C[C@H]1CCCC[C@@H]1n1nc(Nc2ccc3c(c2)C(O)C2(CCCCC2)S3(=O)=O)c2c(=O)[nH]ccc21` (single isomer, unassigned) [Example 3-175, (1S,2S)-2-(3-{[(3R or 3S)-3-hydroxy-1,1-dioxido-3H-spiro[1-benzothiophene-2,1′-cyclohexan]-5-yl]amino}-4-oxo-4,5-dihydro-1H-pyrazolo[4,3-c]pyridin-1-yl)cyclohexanecarbonitrile], the IC50 came out at 0.26 nM.

Take `N#C[C@H]1C[C@H](N2CCC2)CC[C@@H]1n1nc(Nc2ccc(Cl)cc2)c2c(=O)[nH]ccc21` [Example 5-17, (1S,2S,5R)-5-(azetidin-1-yl)-2-(3-((4-chlorophenyl)amino)-4-oxo-4,5-dihydro-1H-pyrazolo[4,3-c]pyridin-1-yl)cyclohexanecarbonitrile]: the IC50 was 33 nM.

For the molecule `CC(C)C(c1ccc(Nc2nn([C@H]3CCCC[C@@H]3C#N)c3cc[nH]c(=O)c23)cc1)n1ccnn1` (single isomer, unassigned) [Example 15-24, (1S,2S)-2-[3-({4-[(1S or 1R)-2-methyl-1-(1H-1,2,3-triazol-1-yl)propyl]phenyl}amino)-4-oxo-4,5-dihydro-1H-pyrazolo[4,3-c]pyridin-1-yl]cyclohexanecarbonitrile], the 50% inhibitory concentration (IC50) stood at 0.27 nM.

With `N#C[C@H]1CCCC[C@@H]1n1nc(Nc2ccc3c(c2)CCNC3)c2c(=O)[nH]ccc21` [Example 3-156, (1S,2S)-2-[4-oxo-3-(1,2,3,4-tetrahydroisoquinolin-6-ylamino)-4,5-dihydro-1H-pyrazolo[4,3-c]pyridin-1-yl]cyclohexanecarbonitrile], the IC50 amounted to 2.6 nM.

In the case of `CC(O)(c1ccc(Nc2nn([C@H]3CCC[C@@H]3C#N)c3cc[nH]c(=O)c23)cc1)C(F)(F)F` (single isomer, unassigned) [Example 3-139, (1S,2S)-2-[4-oxo-3-({4-[(1R or 1S)-2,2,2-trifluoro-1-hydroxy-1-methylethyl]phenyl}amino)-4,5-dihydro-1H-pyrazolo[4,3-c]pyridin-1-yl]cyclopentanecarbonitrile], the concentration for half-maximal inhibition (IC50) was 0.35 nM.

As to `N#C[C@@H]1CCCCC[C@H]1n1nc(Nc2ccc3c(c2)CN(C2CCCC2)C3=O)c2c(=O)[nH]ccc21` (single isomer, unassigned) [Example 15-52, (1R,2R or 1S,2S)-2-{3-[(2-cyclopentyl-1-oxo-2,3-dihydro-1H-isoindol-5-yl)amino]-4-oxo-4,5-dihydro-1H-pyrazolo[4,3-c]pyridin-1-yl}cycloheptanecarbonitrile], the IC50 was determined as 0.3 nM.

For the molecule `CC(C)(C)S(=O)(=O)c1ccc(Nc2nn([C@H]3CC(F)(F)C[C@H]3C#N)c3cc[nH]c(=O)c23)cc1` (single isomer, unassigned) [Example 22-1, (1R,2S or 1S,2R)-2-(3-((4-(tert-Butylsulfonyl)phenyl)amino)-4-oxo-4,5-dihydro-1H-pyrazolo[4,3-c]pyridin-1-yl)-4,4-difluorocyclopentanecarbonitrile], the IC50 is 3.5 nM.

With `CC(C)S(=N)(=O)c1ccc(Nc2nn(C3CCC[C@@H]3C#N)c3cc[nH]c(=O)c23)cc1` (single isomer, unassigned) [Example 3-109, (1S,2S)-2-[3-({4-[(S or R)-S-(1-methylethyl)sulfonimidoyl]phenyl}amino)-4-oxo-4,5-dihydro-1H-pyrazolo[4,3-c]pyridin-1-yl]cyclopentanecarbonitrile], the IC50 came to 0.47 nM.

As to `CC(C)S(=N)(=O)c1ccc(Nc2nn(C3CCC[C@@H]3C#N)c3cc[nH]c(=O)c23)cc1` (single isomer, unassigned) [Example 3-108, (1S,2S)-2-[3-({4-[(S or R)-S-(1-methylethyl)sulfonimidoyl]phenyl}amino)-4-oxo-4,5-dihydro-yl]cyclopentanecarbonitrile], the half-inhibitory concentration (IC50) was determined as 0.5 nM.

`N#C[C@H]1CCCC[C@@H]1n1nc(Nc2ccc(C(O)C(F)F)cc2)c2c(=O)[nH]ccc21` (mixture of isomers) [Example 10-1, Racemic-(1S,2S)-2-(3-((4-(2,2-difluoro-1-hydroxyethyl)phenyl)amino)-4-oxo-4,5-dihydro-1H-pyrazolo[4,3-c]pyridin-1-yl)cyclohexanecarbonitrile]: the IC50 was found to be 0.61 nM.

For the molecule `CC(C)NC(c1ccc(Nc2nn([C@H]3CCC[C@@H]3C#N)c3cc[nH]c(=O)c23)cc1)C(F)(F)F` (single isomer, unassigned) [Example 3-116, (1S,2S)-2-{4-oxo-3-[(4-{(1S or 1R)-2,2,2-trifluoro-1-[(1-methylethyl)amino]ethyl}phenyl)amino]-4,5-dihydro-1H-pyrazolo[4,3-c]pyridin-1-yl}cyclopentanecarbonitrile], the concentration for half-maximal inhibition (IC50) was found to be 0.2 nM.

(Values after patent US9725445B2, “Cycloalkyl nitrile pyrazolo pyridones as Janus kinase inhibitors” (Merck Sharp & Dohme Corp., priority 2013, dated 2017).)
